Columns and labels:
Gambusia affinis = experiment: Ichthyotoxicity against Gambusia affinis at 10 ppm within 24 hrs; format: organism-based; details: in vivo
Artemia salina = experiment: Toxicity against Artemia salina; format: organism-based; details: in vivo

In the case of `CC1=C[C@@H]2Cc3occc3C(C)(C)[C@@H]2C=C1`, the Activity (Gambusia affinis) was “Toxic” and the LD50 (Artemia salina) was 1.52 ppm.

— ChEMBL document CHEMBL1149058, “Further Chemical Studies of Mediterranean and Atlantic Hypselodoris Nudibranchs: A New Furanosesquiterpenoid from Hypsdodoris webbi” (J Nat Prod, 1994)
